Measurements taken from patent publication US5322847A, “Azabenzimidazoles in the treatment of asthma, arthritis and related diseases” (Pfizer Inc., priority 1992, dated 1994).

Tests used:
[1] = biological target: T1, PAF receptor sites on rabbit platelet homogenate (Oryctolagus cuniculus, UniProt G1TEI7); assay: platelet activating factor (PAF) receptor assay; type: binding; settings: radioligand 3H-PAF; constant used in Ki=(IC50)/[1+(L/Kd)]; 25° C., sodium-free buffer +0.25% BSA; read-out: Kd (dissociation constant)
T1 construct: specific PAF receptor sites on rabbit platelet homogenate; tissue Rockland, Inc., Gilbertsville, Pa; (rabbit blood mixture); host or cells: platelets from blood of normal New Zealand white rabbits, freeze-thawed homogenate
T1 sequence (G1TEI7 1-342): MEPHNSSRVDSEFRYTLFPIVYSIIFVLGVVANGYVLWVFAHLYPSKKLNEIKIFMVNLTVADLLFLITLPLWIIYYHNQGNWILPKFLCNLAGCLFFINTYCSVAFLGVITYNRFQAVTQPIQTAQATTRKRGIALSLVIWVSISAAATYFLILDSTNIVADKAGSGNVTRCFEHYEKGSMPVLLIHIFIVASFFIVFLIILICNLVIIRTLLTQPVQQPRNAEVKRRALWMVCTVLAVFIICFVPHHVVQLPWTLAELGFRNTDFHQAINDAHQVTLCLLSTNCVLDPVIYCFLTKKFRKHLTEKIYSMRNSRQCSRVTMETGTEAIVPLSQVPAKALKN
Description: The platelet activating factor (PAF) receptor assay tests the ability of a compound to compete with radiolabeled PAF for specific PAF receptor sites on rabbit platelet homogenate.
Five hundred milliliters of a rabbit blood mixture is purchased from Rockland, Inc., Gilbertsville, Pa. The blood mixture is 4 parts blood: 1 part 4% sodium citrate (v/v), and is obtained by heart puncture from normal, approximately 8-month old New Zealand white rabbits. The blood mixture is delivered overnight on wet ice (approx. 8° C.).
The blood mixture is centrifuged at 514 g for 10 minutes. The supernatant platelet-rich plasma is gently laid over Ficoll-Paque (Pharmacia) at a ratio of 9 parts plasma:2 parts Ficoll (v/v) The plasma/Ficoll mixture is centrifuged at 856 g for 20 minutes. […] Protein concentration of the suspension is determined by a Bio-Rad assay. […]
The reaction tubes are incubated at 25° C. for 45 minutes. […] The vial is capped, vortexed and counted for 3H.
Percent specific binding is calculated using the formula
Percent specific binding is graphed as a function of compound concentration. […] Alternatively, the IC50 is calculated using the logistic dose-response (Hill plot) option of the VAX Biostat utility. The inhibitory constant (Ki) is calculated by using the formula […]

[2] = tested on: PAF lethality in CDl male mice; assay: PAF lethality assay; type: in vivo; settings: Mus musculus; positive control; oral dosing 45 minutes before i.v. PAF injection; read-out: approximate ED 50
Method: To evaluate the compounds of the formula (I) in vivo, they are tested by the so-called PAF lethality assay procedure:
Mice: CDl males, all approximately the same weight (approximately 26 grams), 12 per group.
Vehicle for oral drug dosing: EES (5% ethanol, 5% emulphor, 90% saline). Stored at room temperature.
Drugs: For routine screening at 50 mg/kg, 20 mg drug is dissolved in 4 ml EES, using sonication in a sonicator bath or grinding in a Ten Broeck grinder to dissolve drug if necessary. If solubility is still a problem, the drug is used as a suspension.
Vehicle for i.v. Injection: Saline with 2.5 mg/ml Bovine Serum Albumin (BSA, Sigma #A4378) and 0.05 mg/ml Propranolol (Sigma #PO884). Prepared fresh daily and kept at room temperature.
Platelet Activating Factor (PAF): A […] stock solution is prepared by dissolving 1 mg PAF (Calbiochem #429460) in 0.18 ml ethanol. This is stored at -20° C. and is diluted in vehicle (see above) the day of use. The concentration of PAF used is calibrated so that when injected at 0.1 ml/10 grams body weight, it will kill approximately 80% of untreated controls. This is usually about […] (a 1 to 2034 dilution from stock). […]
Method: 45 minutes before PAF injection, mice are treated orally with drug using 0.1 ml/10 grams body weight. […] Results are expressed as percent mortality as compared to controls. […]

Structure (SMILES)	Kd [1]	ED50 [2]
CCCCCCCCCCCCCCCCOCC(COP(=O)([O-])OCC[N+](C)(C)C)OC(C)=O (centres unmarked) [Example 3H-PAF]	0.83 nM	
O=C1CCN(c2ccccc2)N1 [Phenidone]		~25 mg/kg
